Measured values: ChEMBL document CHEMBL3739366, “Discovery of HTL6641, a dual orexin receptor antagonist with differentiated pharmacodynamic properties” (Medchemcomm, 2015)
pKi: −log10 of the molar value. Activity calls are given as the source filed them. The rule behind the calls is not given here.

Assays:
[1] = molecular target: T1, Orexin/Hypocretin receptor type 1 (Homo sapiens, UniProt O43613); assay: Displacement of [3H]-4-(2,6-Difluoro-4-methoxybenzyl)-2-(5,6-dimethoxypyridin-3-yl)-2H-1,2,4-benzothiadiazin-3(4H)-one 1,1-dioxide from orexin receptor-1 (unknown origin) after 90 mins
T1 sequence (O43613 whole entry): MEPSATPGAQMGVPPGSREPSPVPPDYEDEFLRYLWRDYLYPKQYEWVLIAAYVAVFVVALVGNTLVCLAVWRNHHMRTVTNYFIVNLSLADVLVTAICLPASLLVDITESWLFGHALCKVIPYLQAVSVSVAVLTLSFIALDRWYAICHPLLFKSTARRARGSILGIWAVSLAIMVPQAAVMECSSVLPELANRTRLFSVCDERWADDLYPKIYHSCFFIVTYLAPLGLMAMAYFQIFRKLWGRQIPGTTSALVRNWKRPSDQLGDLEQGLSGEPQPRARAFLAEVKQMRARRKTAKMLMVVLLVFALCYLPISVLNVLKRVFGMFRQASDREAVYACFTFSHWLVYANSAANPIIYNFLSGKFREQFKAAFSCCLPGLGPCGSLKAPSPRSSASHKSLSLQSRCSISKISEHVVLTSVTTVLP

Orexin receptor type 2 = molecular target: T2, Orexin receptor type 2 (Homo sapiens, UniProt O43614); assay: Displacement of [3H]EMPA from human orexin receptor-2 expressed in HEK293 cells after 90 mins by scintillation counting; assay type: cell-based
T2 sequence (O43614 whole entry): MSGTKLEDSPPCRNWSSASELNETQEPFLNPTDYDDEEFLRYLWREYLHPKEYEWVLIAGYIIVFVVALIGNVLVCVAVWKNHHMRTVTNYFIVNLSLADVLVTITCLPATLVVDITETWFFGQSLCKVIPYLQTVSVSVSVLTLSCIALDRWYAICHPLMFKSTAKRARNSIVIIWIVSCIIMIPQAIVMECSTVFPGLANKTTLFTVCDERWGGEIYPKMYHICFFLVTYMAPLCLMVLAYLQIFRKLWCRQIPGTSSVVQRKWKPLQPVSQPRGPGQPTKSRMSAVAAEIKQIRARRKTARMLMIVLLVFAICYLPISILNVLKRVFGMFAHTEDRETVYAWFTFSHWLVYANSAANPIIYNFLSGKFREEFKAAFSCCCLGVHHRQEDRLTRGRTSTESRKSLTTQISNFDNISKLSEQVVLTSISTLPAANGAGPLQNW

[2] = Half life in rat liver microsomes; assay type: ADME
[3] = Tmax in Sprague-Dawley rat at 2 mg/kg, po; assay type: ADME, organism-based; conditions: in vivo
Rattus norvegicus [4] = assay: AUC (infinity) in Sprague-Dawley rat at 2 mg/kg, po; assay type: ADME, organism-based; parameters: dose 2 mg/kg, route oral, time infinity; conditions: in vivo
[5] = Oral bioavailability in Sprague-Dawley rat at 2 mg/kg; assay type: ADME, organism-based; conditions: in vivo
[6] = Ratio of drug level in brain to plasma in Sprague-Dawley rat at 1 mg/kg, iv after 0.5 hrs; assay type: ADME, organism-based; conditions: read-out: BPR
[7] = Half life in Sprague-Dawley rat at 2 mg/kg, po; assay type: ADME, organism-based; conditions: in vivo
[8] = Volume of distribution at steady state in Sprague-Dawley rat at 1 mg/kg, iv; assay type: ADME, organism-based; conditions: in vivo, read-out: Vdss
[9] = Ratio of drug level in cerebrospinal fluid to brain in Sprague-Dawley rat at 1 mg/kg, iv after 0.5 hrs; assay type: ADME, organism-based, CSF/Brain; conditions: in vivo
[10] = Clearance in Sprague-Dawley rat at 1 mg/kg, iv; assay type: ADME, organism-based; conditions: in vivo
[11] = molecular target: T3, Orexin/Hypocretin receptor type 1 (Homo sapiens) (UniProt O43613)
T3 sequence (whole entry): T1 sequence (O43613 whole entry)

[12] = molecular target: T4, Orexin receptor type 2 (Homo sapiens) (UniProt O43614)
T4 sequence (whole entry): T2 sequence (O43614 whole entry)
Description: Binding affinity to orexin receptor-2 (unknown origin) assessed as dissociation half-life by SPR assay

[13] = molecular target: T4, Orexin receptor type 2 (Homo sapiens); remark: listed apart in the source
Description: Binding affinity to orexin receptor-2 (unknown origin) assessed as dissociation half-life by Motulsky-Mahan radioligand binding assay

Rattus norvegicus [14] = assay: Antiinsomnic activity in CD1 rat assessed as effect on sleep architecture at 30 mg/kg, po administered at 18 hrs at circadian time; assay type: functional, organism-based
Rattus norvegicus [15] = assay: Ex-vivo receptor occupancy of orexin receptor-2 Sprague-Dawley rat frontal cortex using [3H]EMPA at 1 mg/kg, po after 1 hr by autoradiography relative to control; assay type: functional
[16] = Plasma concentration in Sprague-Dawley rat plasma at 1 mg/kg, po after 1 hr; assay type: ADME, organism-based
[17] = molecular target: Orexin/Hypocretin receptor type 2 (Homo sapiens) (UniProt O43614)
[18] = Volume of distribution at steady state in beagle dog at 2 mg/kg, iv; assay type: ADME, organism-based, Canis lupus familiaris; conditions: in vivo, read-out: Vdss
[19] = Oral bioavailability in beagle dog at 2 mg/kg; assay type: ADME, organism-based, Canis lupus familiaris; conditions: in vivo
[20] = Tmax in beagle dog at 2 mg/kg, po; assay type: ADME, organism-based, Canis lupus familiaris; conditions: in vivo
[21] = Half life in beagle dog at 2 mg/kg, po; assay type: ADME, organism-based, Canis lupus familiaris; conditions: in vivo
[22] = Clearance in beagle dog at 2 mg/kg, iv; assay type: ADME, organism-based, Canis lupus familiaris; conditions: in vivo
Canis familiaris = assay: AUC (infinity) in beagle dog at 2 mg/kg, po; assay type: ADME, organism-based, Canis lupus familiaris; parameters: dose 2 mg/kg, route oral, time infinity; conditions: in vivo

SMILES | pKi [1] | pKi (Orexin receptor type 2) | half-life [2] | also measured
COc1ccc(N2C(=O)N(Cc3c(F)cc(F)cc3OC)c3ccccc3S2(=O)=O)cc1OC | 7.20 | 8.20 |  | 
COc1cc(F)c(CN2C(=O)N(c3cc(OC)nc(OC)c3)S(=O)(=O)c3ccccc32)c(F)c1 | 9.00 | 9.60 | 16 min | 
COc1cc(N2C(=O)N(Cc3c(F)cc(F)cc3F)c3ccccc3S2(=O)=O)cc(OC)n1 | 7.80 | 8.90 | 16 min | Tmax [3]: 24 min; AUC (Rattus norvegicus [4]): 705 ng·h/mL; bioavailability [5]: 36%; Kp at 0.5 h [6]: 1.51; half-life [7]: 198 min; Vd [8]: 3.9 L/kg; Ratio ([9]; BLD = below limit of detection): BLD; clearance [10]: 17 mL/min/kg
COc1cc(F)c(CN2C(=O)N(c3cnc(OC)c(OC)c3)S(=O)(=O)c3ccccc32)c(F)c1 | 8.60 | 9.40 | 9 min | 
COc1ccc(N2C(=O)N(Cc3c(F)cc(F)cc3Cl)c3ccccc3S2(=O)=O)cc1OC | 7.60 | 9.00 |  | 
COc1ccc(N2C(=O)N(Cc3ccccc3F)c3ccccc3S2(=O)=O)cc1OC | 6.50 | 8.20 |  | 
COc1cc(F)c(CN2C(=O)N(c3ccc(OC)c(OC)c3)S(=O)(=O)c3ccccc32)c(F)c1 | 8.70 | 9.30 |  | 
COc1ccc(N2C(=O)N(Cc3c(F)cc(F)cc3F)c3ccccc3S2(=O)=O)cc1OC | 7.30 | 8.70 |  | 
COc1ccc(N2C(=O)N(Cc3ccc(Cl)cc3F)c3ccccc3S2(=O)=O)cc1OC | 7.20 | 8.00 |  | 
COc1ccc(N2C(=O)N(Cc3ccc(F)cc3Cl)c3ccccc3S2(=O)=O)cc1OC | < 5.60 | 7.60 |  | 
COc1cc(F)c(CN2C(=O)N(c3ccc(OC)c(OC)c3)S(=O)(=O)c3ccccc32)c(Cl)c1 | 9.40 | 10.00 |  | 
COc1cc(N2C(=O)N(Cc3c(F)cc(F)cc3F)c3ccccc3S2(=O)=O)ccn1 | 6.40 | 7.20 | 23 min | 
COc1ccc(N2C(=O)N(Cc3c(F)cccc3Cl)c3ccccc3S2(=O)=O)cc1OC | 8.10 | 9.10 |  | 
COc1ccc(N2C(=O)N(Cc3c(F)cc(F)cc3F)c3ncccc3S2(=O)=O)nc1OC | 7.60 | 8.80 | 16 min | Tmax [3]: 30 min; AUC (Rattus norvegicus [4]): 401 ng·h/mL; bioavailability [5]: 34%; Kp at 0.5 h [6]: 0.84; half-life [7]: 78 min; Vd [8]: 2.3 L/kg; Ratio [9]: 0.01; clearance [10]: 29 mL/min/kg
COc1ccc(N2C(=O)N(Cc3c(F)cc(C)cc3Cl)c3ccccc3S2(=O)=O)cc1OC | 8.20 | 9.10 |  | 
COc1cc(N2C(=O)N(Cc3c(F)cc(F)cc3Cl)c3ccccc3S2(=O)=O)cnc1OC | 7.40 | 8.80 | 23 min | Tmax [3]: 48 min; AUC (Rattus norvegicus [4]): 300 ng·h/mL; bioavailability [5]: 29%; Kp at 0.5 h [6]: 0.79; half-life [7]: 108 min; Vd [8]: 3.5 L/kg; Ratio [9]: 0.02; clearance [10]: 34 mL/min/kg
COc1ccc(N2C(=O)N(Cc3ccc4c(c3)OCO4)c3ccccc3S2(=O)=O)cc1OC |  | 6.60 |  | 
Cc1ccc(-n2nccn2)c(C(=O)N2CCN(c3nc4cc(Cl)ccc4o3)CC[C@H]2C)c1 [SUVOREXANT] |  |  |  | T1/2 [11]: 24 min; T1/2 [12]: 210 min; T1/2 [13]: 79 min; Activity (Rattus norvegicus [14]): Active; Occ (Rattus norvegicus [15]): 31%; concentration at 1 h [16]: 22 ng/mL
CNc1cc(N2C(=O)N(Cc3c(F)cc(OC)cc3F)c3ncccc3S2(=O)=O)cnc1OC | 8.90 | 9.20 | 7 min | 
COc1ccc(N2C(=O)N(Cc3ccccc3)c3ccccc3S2(=O)=O)cc1OC | 5.70 | 7.10 |  | 
COc1ccc(-n2c(=O)c3ccccc3n(Cc3ccccc3Cl)c2=O)cc1OC | < 5.20 | < 5.00 |  | 
COc1cc(N2C(=O)N(Cc3c(F)cc(F)cc3F)c3ccccc3S2(=O)=O)cnc1OC | 7.90 | 8.30 | 28 min | Tmax [3]: 90 min; T1/2 [17]: 4.3 min; AUC (Rattus norvegicus [4]): 558 ng·h/mL; Vd [18]: 3.6 L/kg; T1/2 [13]: 3 min; bioavailability [5]: 29%; bioavailability [19]: 100%; Kp at 0.5 h [6]: 0.77; Tmax [20]: 24 min; half-life [7]: 96 min; Vd [8]: 2.2 L/kg; half-life [21]: 636 min; Ratio [9]: 0.01; clearance [22]: 5 mL/min/kg; AUC (Canis familiaris): 6960 ng·h/mL; clearance [10]: 18 mL/min/kg
COc1cc(F)c(CN2C(=O)N(c3ccc(OC)c(OC)n3)S(=O)(=O)c3ccccc32)c(F)c1 |  | 9.70 | 8 min | 
